“Also recorded” adds a separate entry of the source. Each block holds one compound with its values, some of them ahead of it.
Tests used:
Akt protein [1] = assay: Western blot of Akt activation in HepG2 cells transfected with C2-Akt fusion protein or wild type Akt and PI3K; type: cell-based, human; settings: increase of calcium concentration (PMA 0, 10, 50 or 100 nM, ionomycin 20 μM, 1 hour)
From the text: First, the C2 domain of PKCβ protein and Akt protein (SEQ. ID. NO: 15) were obtained by PCR using the primers consisting of the nucleotide sequences represented by SEQ. ID. NO: 9˜SEQ. ID. The obtained PCR product was cloned in pEGFP-C2 vector by the conventional cloning method, resulting in the construction of a vector expressing the C2 domain/Akt protein fusion protein (SEQ. ID. NO: 17) (C2-Akt fusion protein). At this time, as the control group, a vector expressing the wild type Akt protein containing the PH domain was prepared.
HepG2 cells were transfected with the vector expressing the C2-Akt fusion protein constructed above along with the vector expressing PI3K protein by using lipofectamine according to the manufacturer's protocol. The transfected cells were treated with PMA at the concentration of 0, 10, 50 or 100 nM ionomycin at the concentration of 20 μM, followed by reaction for 1 hour. Western blot analysis was performed with the cells above. […]

PH domain of Akt protein = molecular target: T1, PH domain of Akt protein (Homo sapiens, UniProt P31749); assay: Protein-lipid binding assay (PIP-strips) with PH domain of Akt protein; settings: calcium 0, 0.05 or 0.1 mM
T1 construct: His6 (C); made in house; host or cells: E. coli BL21 (DE3), pET28a vector
Method: E. coli BL21 (DE3) cells were transfected with a vector containing the PH domain of Akt protein, and the cells were cultured in 50 Ml of LB medium supplemented with 50 μg/Ml of kanamycin. The culture was performed at 37° C. for 8 hours. Upon completion of the culture, the cells were transferred into a 25° C. agitation incubator. The cells were cultured until OD600 reached 0.6 to 1.0, and then 1 mM IPTG (isopropyl-β-D-1-thiogalactopyranoside) was added thereto. 18 hours after the addition of IPTG, centrifugation was performed at 7,000×g at 4° C. for 10 minutes to obtain cells. Sonication equilibrium buffer (150 mM NaCl, 50 mM Tris-HCl, pH 7.6) was added to the obtained cells. The cells added with the sonication equilibrium buffer were lysed by sonication. The PH domain of Akt protein was purified from the cell lysate by […] using nickel-nitrilotriacetic acid and HiLoad Superdex-200 column (GE Healthcare life science, USA). The purity of the purified protein was examined by SDS-PAGE (sodium dodecyl sulfate polyacrylamide gel electrophoresis).
Particularly, the analysis was performed by using membrane-immobilized lipid strips (PIP-strips, Echelon Biosciences Inc., USA). […]

[2] = molecular target: T2, PH domain of the purified Akt protein (Homo sapiens, UniProt P31749); assay: ITC of binding of PH domain of purified Akt protein to phospholipids; settings: increase of the calcium concentration
T2 construct: His6 (C); made in house; host or cells: E. coli BL21 (DE3), pET28a vector
Method: (§1) Particularly, a protein solution was prepared by suspending a protein in 10 mM HEPES (pH 7.0). Phospholipid related ligand was titrated in the protein solution at 25° C. by using iTC200 micro calorimetry system (MicroCal Inc., USA), and the generated graph was corrected using Origin software (MicroCal Inc., USA). At this time, the phospholipid related ligand was prepared in the form of liposome by mixing POPC (1-palmitoyl-2-oleoyl-sn-glycero-3-phosphocholin) chloroform solution and POPS (1-palmitoyl-2-oleoyl-sn-glycero-3-phosphoserine), PI(3,4)P2 (1,2-dipalmotoyl-sn-glycero-3-phosphatidylinositol-3,4-[…]), PI(4,5)P2 (1,2-dipalmotoyl-sn-glycero-3-phosphatidylinositol-4,5-trisphosphate) or PI(3,4,5)P3 (1,2-dipalmotoyl-sn-glycero-3-phosphatidylinositol-3,4,5-trisphosphate) at the molar ratio of 80:20. The organic solvent was eliminated. The organic solvent was removed and a single layer lamellar was produced in HEPES (pH 7.0) using phospholipids.

[3] = Protein-lipid binding assay with PKCβ protein C2 domain, PI(3,4,5)P3; settings: calcium 0, 0.05 or 0.1 mM
Method: (§2) Particularly, the analysis was performed by using membrane-immobilized lipid strips (PIP-strips, Echelon Biosciences Inc., USA). At this time, the membrane was loaded with LPA (lysophosphatidic acid), LPC (lysophosphatidylcholine), PI (phosphatidylinositol), PE (phosphatidylethanolamine), PC (phosphatidylcholine), S1P (sphingosine 1-phosphate), PA (phosphatidic acid) or PS (phosphatidylserine) at the concentration of 100 pmol, to which calcium was added at the concentration of 0, 0.05 or 0.1 mM. Each membrane was pre-treated with a blocking buffer [fatty acid free 3% BSA (bovine serum albumin), 0.1% (v/v) Tween 20 and TBS (Tris-buffered saline), pH 7.5] at room temperature for 30 minutes. The PH domain of Akt protein purified in Example <7-1> was suspended in a blocking buffer at the concentration of 3.5 mg/Ml. The suspended protein was reacted with the membrane-immobilized lipid strip at room temperature for 30 minutes. The protein bound with lipid was identified by using the PH domain antibody.
(§3) To investigate whether or not the binding of the PKCβ protein C2 domain purified in Example <8-1> to PI(4,5)P2 or PI(3,4,5)P3 was inhibited by calcium, protein lipid binding assay and ITC were performed. […]

[4] = Protein-lipid binding assay with PKCβ protein C2 domain, PI(4,5)P2; settings: calcium 0, 0.05 or 0.1 mM
Method: as §2, §3

CHO cells = assay: Migration of mCherry-tagged PH or C2 domain to the cell membrane, fluorescence microscopy; type: cell-based
From the text: First, the PH domain of Akt1 protein or C2 domain of PKCβ protein was obtained by PCR using the primers consisting of the nucleotide sequences represented by […]. The obtained PCR product was cloned in pmCherry-C1 vector (Takara Clontech, Japan) by the conventional cloning method. CHO cells were transfected with the prepared vector by using lipofectamine according to the manufacturer's protocol. The transfected cells were selected by using blastidicin. Then, mCherry positive cells were confirmed by flow cytometry.
PMA at the concentration of 100 nM, ionomycin at the concentration of 10 μM or insulin at the concentration of 100 nM was added to the cells expressing the PH domain of Akt1 protein or the C2 domain of PKCβ protein and the location of the expressed protein was confirmed by fluorescence microscopy.

[5] = ITC of PKCβ protein C2 domain with PI(3,4,5)P3 liposome; type: binding
Method: as §1
In the meantime, in ITC, the phospholipid related ligand was prepared in the form of liposome by mixing POPC chloroform solution and PI(3,4,5)P3 at the molar ratio of 80:20. Then, ITC was performed by the same manner under the same conditions as described in Example <7-3> except that the PKCβ protein C2 domain or D187/193A, the C2 domain mutant, was used.

[6] = tested on: cells having an increased intracellular calcium concentration; assay: Calcium concentration in cells having an increased intracellular calcium concentration; type: cell-based; settings: cells having an increased intracellular calcium concentration treated with verapamil
Akt protein [7] = assay: Western blotting of Akt protein phosphorylation in insulin-treated HepG2 cells; type: cell-based, human; settings: verapamil 0, 5, 10 or 100 nM, with or without insulin
Method: First, male C57BL/6 mice at 8 weeks were divided into the fasted group wherein the mice were fasted for 16 hours and the refed group wherein the mice were fasted for 16 hours and then fed for 4 hours. Each group was sub-divided into the high fat diet group (HFD) and the normal diet group (chow). The liver cells were extracted from the raised mice by the same manner and under the same conditions as described in Example 1. The extracted liver cells were lysed in a lysis buffer containing phosphatase (Sigma-Aldrich, USA) and protease inhibitor (Sigma-Aldrich, USA). Proteins extracted from 2 to 3 mg of the liver tissue were homogenized by using a tissue homogenizer (TissuLyser, Qiagen, USA) for 1.5 minutes at a frequency of 1/30 sec. The homogenized lysate was centrifuged at 12,000 rpm for 15 minutes and the supernatant was obtained. The amount of the extracted protein was quantified by using a protein assay kit (Bio-Rad Laboratories, USA), and at this time BSA was used as a standard sample. 3 mg of the protein was mixed with 6× loading buffer, followed by electrophoresis using 10% SDS-PAGE gel. The electrophoresed protein was transferred onto a polyvinylidene fluoride (PVDF) membrane by using a transfer buffer at 4° C. with 120 V for 1.5 hours. The PVDF membrane on which the protein was transferred was pretreated with a blocking buffer prepared by mixing 5% skim milk with TBS buffer (TBS-T, pH 7.6) supplemented with Tween 20 for 30 minutes, and the membrane was washed with TBS-T. The washed membrane was added with the antibody against Akt (Cell Signaling Technology, USA), Akt(T308) (Cell Signaling Technology, USA), Akt(S473) (Cell Signaling Technology, USA), FOXO3A (Cell Signaling Technology, USA), FOXO3A(S253) (Cell Signaling Technology, USA), GSK-3β (Cell Signaling Technology, USA) or GSK-3β(S9) (Cell Signaling Technology, USA) protein as a primary antibody, followed by reaction at 4° C. for 12 hours. At this time, the antibody against actin (Santa Cruz Biotechnology, USA) protein was used for the control group. Upon completion of the reaction, the secondary antibody corresponding to the primary antibody was added thereto, followed by reaction at room temperature for 30 minutes. The PVDF membrane was washed with TBS-T buffer three times. The washed PVDF membrane was added with ECL solution (Thermo Scientific, USA), followed by image observation.
To investigate the changes in insulin sensitivity when insulin was added to the fatty liver cell model constructed in vitro, the phosphorylations of those proteins that were involved in insulin signal transduction were examined. PA was added to the human HepG2 cells prepared in Example 3, followed by reaction for 24 hours. […]

T1 sequence (P31749 1-144): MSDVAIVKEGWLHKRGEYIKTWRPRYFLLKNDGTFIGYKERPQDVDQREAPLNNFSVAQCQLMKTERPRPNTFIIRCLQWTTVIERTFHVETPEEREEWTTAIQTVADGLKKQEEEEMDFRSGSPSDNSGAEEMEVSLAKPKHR
T2 sequence (P31749 1-144): as above

Compound: wild type Akt protein: wild type Akt protein containing the PH domain, control
Akt protein activation by PI3K (Akt protein [1]): inhibited

Compound: [Ca+2] [calcium]
binding of PH domain of Akt protein to PI(3,4)P2 or PI(3,4,5)P3 (PH domain of Akt protein): inhibited
binding of PH domain of Akt protein to PI(3,4)P2, PI(4,5)P2, PI(3,4,5)P3 or PS [2]: inhibited

binding to PI(3,4,5)P3 [3]: strongly bound; also recorded: promoted
binding to PI(4,5)P2 [4]: strongly bound; also recorded: promoted
binding to PI(3,4,5)P3 ([5]; absence of calcium): not induced
binding to PI(3,4,5)P3 ([5]; increased calcium concentration): combined
binding to PI(3,4,5)P3 ([5]; increased calcium concentration, listed as PKCβ protein C2 domain): strongly bound
Compound: C2 domain of PKCβ protein: C2 domain of PKCβ protein (SEQ. ID. NO: 14)
migration to the cell membrane (CHO cells; addition of insulin 100 nM): did not migrate
migration to the cell membrane (CHO cells; increased intracellular calcium concentration (PMA 100 nM, ionomycin 10 μM)): migrated; also recorded: promoted

Compound: COc1ccc(CCN(C)CCCC(C#N)(c2ccc(OC)c(OC)c2)C(C)C)cc1OC (stereo not drawn) [verapamil]
increased calcium concentration [6]: inhibited; also recorded: reduced
phosphorylation of Akt protein (Akt protein [7]): increased

From patent US11726082B2, “Screening method of drug candidates for treating disease using interaction between calcium and phosphatidylinositol phosphate” (Gachon University of Industry—Academic Cooperation …, priority 2017, dated 2023)
